From patent US6528494B2 (priority 1996, dated 2003)
Where a name gives a salt, the structure may show the parent alone.

Tests used:
[1] = system: lung eosinophil accumulation; assay: Antigen-induced lung eosinophil accumulation in sensitised guinea pigs; format: in vivo, guinea pig; details: airstream concentration; inhaled route, 30 min aerosol before ovalbumin challenge; lavage 24 h after challenge
Method: (2) Antigen-induced lung eosinophil accumulation in sensitised guinea pigs.
Ovalbumin sensitised guinea pigs were dosed with mepyramine (1 mg/kg ip) to protect against anaphylactic bronchospasm. A compound of the invention was then given by the inhaled route (30 min breathing of an aerosol of the compound) immediately prior to ovalbumin challenge (30 min breathing of an aerosol generated from a 50 ug/ml solution of ovalbumin). Twenty four hours after challenge, the guinea pigs were killed and the lungs lavaged. Total and differential leucocyte counts were then obtained for the bronchoalveolar lavage fluid and the dose of test compound giving a 50% reduction in eosinophil accumulation (ED50) was determined (Sanjar et al. 1992).

adenosine 3 receptor = target: T1, adenosine 3 receptor (Homo sapiens, UniProt P0DMS8); assay: Agonist activity against adenosine 3 receptor (CHO cells, forskolin-enhanced cAMP/SPAP reporter); format: cell-based; details: CHO cells transfected with human receptor; forskolin-enhanced cAMP via SPAP; mean of all the versions tested
T1 sequence (P0DMS8 1-318): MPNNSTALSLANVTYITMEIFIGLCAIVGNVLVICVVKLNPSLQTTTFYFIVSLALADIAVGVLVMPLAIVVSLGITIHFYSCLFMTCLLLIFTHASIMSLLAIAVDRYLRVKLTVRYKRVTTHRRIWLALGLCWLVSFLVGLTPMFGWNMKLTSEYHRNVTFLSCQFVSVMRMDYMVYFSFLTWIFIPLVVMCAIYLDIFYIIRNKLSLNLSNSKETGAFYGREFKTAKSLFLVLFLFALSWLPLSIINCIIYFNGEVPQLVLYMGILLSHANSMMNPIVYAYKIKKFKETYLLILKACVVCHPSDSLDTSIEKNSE
Method: (§1) (1) Agonist activity against adenosine 2a, adenosine 1 and adenosine 3 receptor subtypes.
(§2) The effect of test compounds was determined by their effects on basal levels of cAMP (A2a) or on forskolin-enhanced cAMP (A1 and A3) as reflected by changes in levels of SPAP.

adenosine 1 receptor = target: T2, adenosine 1 receptor (Homo sapiens, UniProt P30542); assay: Agonist activity against adenosine 1 receptor (CHO cells, forskolin-enhanced cAMP/SPAP reporter); format: cell-based; details: CHO cells transfected with human receptor; forskolin-enhanced cAMP via SPAP; mean of all the versions tested
T2 sequence (P30542 1-326): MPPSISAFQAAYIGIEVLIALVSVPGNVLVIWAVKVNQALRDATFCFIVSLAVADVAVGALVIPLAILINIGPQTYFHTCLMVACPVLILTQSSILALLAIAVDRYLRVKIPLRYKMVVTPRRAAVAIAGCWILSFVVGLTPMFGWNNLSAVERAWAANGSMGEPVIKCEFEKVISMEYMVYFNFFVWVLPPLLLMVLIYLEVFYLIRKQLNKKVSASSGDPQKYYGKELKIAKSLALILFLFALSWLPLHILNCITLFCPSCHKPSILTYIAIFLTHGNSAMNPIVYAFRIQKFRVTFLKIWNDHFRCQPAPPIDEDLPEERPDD
Method: as §1, §2

adenosine 2a receptor = adenosine 2a receptor (Homo sapiens, UniProt P29274); assay: Agonist activity against adenosine 2a receptor (CHO cells, cAMP/SPAP reporter); format: cell-based; details: CHO cells transfected with human receptor; basal cAMP via SPAP; mean of all the versions tested
Chain of adenosine 2a receptor (P29274 whole entry): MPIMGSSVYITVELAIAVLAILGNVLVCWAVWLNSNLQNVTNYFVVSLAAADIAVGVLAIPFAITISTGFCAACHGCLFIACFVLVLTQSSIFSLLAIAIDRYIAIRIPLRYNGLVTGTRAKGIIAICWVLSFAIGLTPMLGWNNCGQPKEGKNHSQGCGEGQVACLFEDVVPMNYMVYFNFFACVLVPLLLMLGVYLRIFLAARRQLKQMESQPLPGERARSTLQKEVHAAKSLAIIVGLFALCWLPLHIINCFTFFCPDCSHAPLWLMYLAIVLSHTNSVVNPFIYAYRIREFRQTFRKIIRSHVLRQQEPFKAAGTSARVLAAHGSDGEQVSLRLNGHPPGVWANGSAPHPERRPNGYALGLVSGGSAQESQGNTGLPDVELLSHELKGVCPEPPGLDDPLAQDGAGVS
Method: as §1, §2

SMILES | ED50 (50% reduction in eosinophil accumulation) [1] | A3 EC50 as a ratio of that of NECA (adenosine 3 receptor) | A1 EC50 as a ratio of that of NECA (adenosine 1 receptor) | A2a EC50 as a ratio of that of NECA (adenosine 2a receptor)
CCn1nnc([C@H]2O[C@@H](n3cnc4c(N)nc(N[C@H](CO)Cc5ccccc5)nc43)[C@H](O)[C@@H]2O)n1.Cl [Example 11a, (2R,3R,4S,5R)-2-[6-Amino-2-(1S-hydroxymethyl-2-phenyl-ethylamino)-purin-9-yl]-5-(2-ethyl-2H-tetrazol-5-yl)-tetrahydro-furan-3,4-diol Hydrochloride] | 6 ng/mL |  |  | 
CCn1nnc([C@H]2O[C@@H](n3cnc4c(NCC(c5ccccc5)c5ccccc5)nc(N[C@H]5CC[C@H](N)CC5)nc43)[C@H](O)[C@@H]2O)n1.Cl.Cl (relative stereo) [Example 1a, rel-(2R,3R,4S,5R)-2-[2-(trans-4-Amino-cyclohexylamino)-6-(2,2-diphenyl-ethylamino)-purin-9-yl]-5-(2-ethyl-2H-tetrazol-5-yl)-tetrahydro-furan-3,4-diol Dihydrochloride] | 6 ng/mL |  |  | 
CCn1nnc([C@H]2O[C@@H](n3cnc4c(NCC(c5ccccc5)c5ccccc5)nc(NCCO)nc43)[C@H](O)[C@@H]2O)n1.O=C(O)C(F)(F)F [Example 47, (2R,3R,4S,5R)-2-[6-(2,2-Diphenyl-ethylamino)-2-(2-hydroxy-ethylamino)-purin-9-yl]-5-(2-ethyl-2H-tetrazol-5-yl)-tetrahydro-furan-3,4-diol Trifluoroacetate] |  | >216 | 27.40 | 1.06
CCn1nnc(C2OC(n3cnc4c(NC5CCCC5)nc(NC(CO)Cc5ccccc5)nc43)C(O)C2O)n1 [Example 71, (2R,3R,4S,5R)-2-[6-Cyclopentylamino-2-(1S-hydroxymethyl-2-phenyl-ethylamino)-purin-9-yl]-5-(2-ethyl-2H-tetrazol-5-yl)-tetrahydro-furan-3,4-diol Formate] |  | >158 | 14.78 | 1.99
CCn1nnc([C@H]2O[C@@H](n3cnc4c(N)nc(NC5CCCC5)nc43)[C@H](O)[C@@H]2O)n1.O=C(O)C(F)(F)F.O=C(O)C(F)(F)F [Example 12] |  | >243 | 31.2 | 0.57
CCn1nnc(C2OC(n3cnc4c(NCCN5CCOCC5)nc(NC(CO)Cc5ccccc5)nc43)C(O)C2O)n1 [Example 85, (2R,3S,4R,5R)-2-(2-Ethyl-2H-tetrazol-5-yl)-5-[2-(1S-hydroxymethyl-2-phenyl-ethylamino)-6-(2-morpholin-4-yl-ethylamino)-purin-9-yl]-tetrahydro-furan-3,4-diol Formate] |  | >179 | 192.90 | 6.11
CC(C)n1nnc([C@H]2O[C@@H](n3cnc4c(NCCc5ccccc5)nc(NCCc5cn(C)cn5)nc43)[C@H](O)[C@@H]2O)n1.O=CO [Example 57, (2R,3S,4R,5R)-2-(2-Isopropyl-2H-tetrazol-5-yl)-5-{2-[2-(1-methyl-1H-imidazol-4-yl)-ethylamino]-6-phenethylamino-purin-9-yl}-tetrahydro-furan-3,4-diol Formate] |  | >362 | 376.10 | 2.42
CC(C)n1nnc([C@H]2O[C@@H](n3cnc4c(NC5CCCC5)nc(NCCc5cn(C)cn5)nc43)[C@H](O)[C@@H]2O)n1.O=CO [Example 41, (2R,3R,4S,5R)-2-{6-Cyclopentylamino-2-[2-(1-methyl-1H-imidazol-4-yl)-ethylamino]-purin-9-yl}-5-(2-isopropyl-2H-tetrazol-5-yl)-tetrahydro-furan-3,4-diol Formate] |  | >232 | 28.9 | 0.73
CC(=O)O.CC(=O)O.CCn1nnc(C2OC(n3cnc4c(NCCN5CCOCC5)nc(NCCc5cn(C)cn5)nc43)C(O)C2O)n1 [Example 50, (2R,3S,4R,5R)-2-(2-Ethyl-2H-tetrazol-5-yl)-5-[2-[2-(1-methyl-1H-imidazol-4-yl)-ethylamino]-6-(2-morpholin-4-yl-ethylamino)-purin-9-yl]-tetrahydro-furan-3,4-diol Diacetate] |  | >86 | 2443.00 | 1.48
CCn1nnc([C@H]2O[C@@H](n3cnc4c(NCCc5ccccc5)nc(NCCc5cn(C)cn5)nc43)[C@H](O)[C@@H]2O)n1.Cl.Cl [Example 4, (2R,3S,4R,5R)-2-(2-Ethyl-2H-tetrazol-5-yl)-5-{2-[2-(1-methyl-1H-imidazol-4-yl)-ethylamino]-6-phenethylamino-purin-9-yl}-tetrahydro-furan-3,4-diol Dihydrochloride] |  | >244 | 205.4 | 0.149
CCn1nnc([C@H]2O[C@@H](n3cnc4c(N)nc(NCCNc5ccccn5)nc43)[C@H](O)[C@@H]2O)n1.O=C(O)C(F)(F)F [Example 55, (2R,3R,4S,5R)-2-{6-Amino-2-[2-(pyridin-2-ylamino)-ethylamino)-purin-9-yl}-5-(2-ethyl-2H-tetrazol-5-yl)-tetrahydro-furan-3,4-diol Trifluoroacetate] |  | >435 | 1136.00 | 5.77
